Laboratory results: patent US20190185417A1, “NOVEL ANTIBIOTICS” (priority 2016, published 2019)

Tests used:
Assay type in all cases: cell-based
[1] = system: Haemophilus influenzae (ATCC 49247); assay: MIC by broth microdilution; conditions: Table 2, Example 2
Method: (§1) The antibacterial potency of the test article(s) was measured using the in vitro broth microdilution assay under assay conditions described by the Clinical and Laboratory Standards Institute. […] The test substance was dissolved in 100% DMSO (unless stated below), suspended completely by sonication or vortexing, diluted by 2-fold serial titrations in the same vehicle, for a total of 11 test concentrations. A 4 μL aliquot of each dilution was added to 196 μL of broth medium seeded with the organism suspension in wells of a 96 well plate (bacterial count: 2−8×10^5 colony forming units/mL final). The final volume was 200 μL in each well and the final DMSO concentration was 2 percent. Following incubation, the test plates were visually examined and wells were scored for growth or complete growth inhibition to define the minimum inhibitory concentration. Each test substance was evaluated in duplicate and the results below are the duplicate test values. Vehicle-control and an active reference agent were used as blank and positive controls, respectively.

[2] = system: Gram-negative bacteria; assay: MIC by broth microdilution, overall statement in words; conditions: Example 1, statement in words
Method: as §1, with “DMSO,” for “DMSO (unless stated below),”, “incubation for 1 day at 36° C.,” for “incubation,”, “were reported as” for “below are”, “respectively. Microorganisms tested were Acinetobacter baumannii (ATCC 17978), Enterococcus faecalis (ATCC 29212), Enterococcus faecium VanA (ATCC 700221), Escherichia coli (ATCC 25922), Escherichia coli efflux defective DEL-tolC (JW5503), Heamophilus influenzae (ATCC 49247), Klebsiella pneumoniae (ATCC 43816), Pseudomonas aeruginosa (ATCC 27853), Pseudomonas aeruginosa MDR (NTUH-974), Staphylococcus aureus (ATCC 29213), Staphylococcus aureus MRSA (ATCC 33591) and Streptococcous pneumoniae (ATCC 46919). H. influenzae was grown in Haemophilus Test Medium and S. pneumoniae was grown in cation adjusted Muller-Hinton Broth II with 5% lysed horse blood. All other microorganisms were grown in cation adjusted Muller-Hinton Broth II.” for “respectively.”
as §1

[3] = system: Enterococcus faecalis (ATCC29212); assay: MIC by broth microdilution; conditions: Table 1, Example 1
Method: as §1, with “DMSO,” for “DMSO (unless stated below),”, “incubation for 1 day at 36° C.,” for “incubation,”, “were reported as” for “below are”, “respectively. Microorganisms tested were Acinetobacter baumannii (ATCC 17978), Enterococcus faecalis (ATCC 29212), Enterococcus faecium VanA (ATCC 700221), Escherichia coli (ATCC 25922), Escherichia coli efflux defective DEL-tolC (JW5503), Heamophilus influenzae (ATCC 49247), Klebsiella pneumoniae (ATCC 43816), Pseudomonas aeruginosa (ATCC 27853), Pseudomonas aeruginosa MDR (NTUH-974), Staphylococcus aureus (ATCC 29213), Staphylococcus aureus MRSA (ATCC 33591) and Streptococcous pneumoniae (ATCC 46919). H. influenzae was grown in Haemophilus Test Medium and S. pneumoniae was grown in cation adjusted Muller-Hinton Broth II with 5% lysed horse blood. All other microorganisms were grown in cation adjusted Muller-Hinton Broth II.” for “respectively.”

[4] = system: Enterococcus faecium, VanA (ATCC 700221); assay: MIC by broth microdilution; conditions: Table 1, Example 1
Method: as §1, with “DMSO,” for “DMSO (unless stated below),”, “incubation for 1 day at 36° C.,” for “incubation,”, “were reported as” for “below are”, “respectively. Microorganisms tested were Acinetobacter baumannii (ATCC 17978), Enterococcus faecalis (ATCC 29212), Enterococcus faecium VanA (ATCC 700221), Escherichia coli (ATCC 25922), Escherichia coli efflux defective DEL-tolC (JW5503), Heamophilus influenzae (ATCC 49247), Klebsiella pneumoniae (ATCC 43816), Pseudomonas aeruginosa (ATCC 27853), Pseudomonas aeruginosa MDR (NTUH-974), Staphylococcus aureus (ATCC 29213), Staphylococcus aureus MRSA (ATCC 33591) and Streptococcous pneumoniae (ATCC 46919). H. influenzae was grown in Haemophilus Test Medium and S. pneumoniae was grown in cation adjusted Muller-Hinton Broth II with 5% lysed horse blood. All other microorganisms were grown in cation adjusted Muller-Hinton Broth II.” for “respectively.”

[5] = system: Staphylococcus aureus (ATCC 29213); assay: MIC by broth microdilution; conditions: Table 1, Example 1
Method: as §1, with “DMSO,” for “DMSO (unless stated below),”, “incubation for 1 day at 36° C.,” for “incubation,”, “were reported as” for “below are”, “respectively. Microorganisms tested were Acinetobacter baumannii (ATCC 17978), Enterococcus faecalis (ATCC 29212), Enterococcus faecium VanA (ATCC 700221), Escherichia coli (ATCC 25922), Escherichia coli efflux defective DEL-tolC (JW5503), Heamophilus influenzae (ATCC 49247), Klebsiella pneumoniae (ATCC 43816), Pseudomonas aeruginosa (ATCC 27853), Pseudomonas aeruginosa MDR (NTUH-974), Staphylococcus aureus (ATCC 29213), Staphylococcus aureus MRSA (ATCC 33591) and Streptococcous pneumoniae (ATCC 46919). H. influenzae was grown in Haemophilus Test Medium and S. pneumoniae was grown in cation adjusted Muller-Hinton Broth II with 5% lysed horse blood. All other microorganisms were grown in cation adjusted Muller-Hinton Broth II.” for “respectively.”

[6] = system: Staphylococcus aureus, MRSA (ATCC 33591); assay: MIC by broth microdilution; conditions: Table 1, Example 1
Method: as §1, with “DMSO,” for “DMSO (unless stated below),”, “incubation for 1 day at 36° C.,” for “incubation,”, “were reported as” for “below are”, “respectively. Microorganisms tested were Acinetobacter baumannii (ATCC 17978), Enterococcus faecalis (ATCC 29212), Enterococcus faecium VanA (ATCC 700221), Escherichia coli (ATCC 25922), Escherichia coli efflux defective DEL-tolC (JW5503), Heamophilus influenzae (ATCC 49247), Klebsiella pneumoniae (ATCC 43816), Pseudomonas aeruginosa (ATCC 27853), Pseudomonas aeruginosa MDR (NTUH-974), Staphylococcus aureus (ATCC 29213), Staphylococcus aureus MRSA (ATCC 33591) and Streptococcous pneumoniae (ATCC 46919). H. influenzae was grown in Haemophilus Test Medium and S. pneumoniae was grown in cation adjusted Muller-Hinton Broth II with 5% lysed horse blood. All other microorganisms were grown in cation adjusted Muller-Hinton Broth II.” for “respectively.”

[7] = system: Klebsiella pneumoniae (ATCC 43816); assay: MIC by broth microdilution
Method: as §1, with “DMSO,” for “DMSO (unless stated below),”, “incubation for 1 day at 36° C.,” for “incubation,”, “were reported as” for “below are”, “respectively. Microorganisms tested were Acinetobacter baumannii (ATCC 17978), Enterococcus faecalis (ATCC 29212), Enterococcus faecium VanA (ATCC 700221), Escherichia coli (ATCC 25922), Escherichia coli efflux defective DEL-tolC (JW5503), Heamophilus influenzae (ATCC 49247), Klebsiella pneumoniae (ATCC 43816), Pseudomonas aeruginosa (ATCC 27853), Pseudomonas aeruginosa MDR (NTUH-974), Staphylococcus aureus (ATCC 29213), Staphylococcus aureus MRSA (ATCC 33591) and Streptococcous pneumoniae (ATCC 46919). H. influenzae was grown in Haemophilus Test Medium and S. pneumoniae was grown in cation adjusted Muller-Hinton Broth II with 5% lysed horse blood. All other microorganisms were grown in cation adjusted Muller-Hinton Broth II.” for “respectively.”
as §1

[8] = system: Pseudomonas aeruginosa (ATCC 27853); assay: MIC by broth microdilution
Method: as §1, with “DMSO,” for “DMSO (unless stated below),”, “incubation for 1 day at 36° C.,” for “incubation,”, “were reported as” for “below are”, “respectively. Microorganisms tested were Acinetobacter baumannii (ATCC 17978), Enterococcus faecalis (ATCC 29212), Enterococcus faecium VanA (ATCC 700221), Escherichia coli (ATCC 25922), Escherichia coli efflux defective DEL-tolC (JW5503), Heamophilus influenzae (ATCC 49247), Klebsiella pneumoniae (ATCC 43816), Pseudomonas aeruginosa (ATCC 27853), Pseudomonas aeruginosa MDR (NTUH-974), Staphylococcus aureus (ATCC 29213), Staphylococcus aureus MRSA (ATCC 33591) and Streptococcous pneumoniae (ATCC 46919). H. influenzae was grown in Haemophilus Test Medium and S. pneumoniae was grown in cation adjusted Muller-Hinton Broth II with 5% lysed horse blood. All other microorganisms were grown in cation adjusted Muller-Hinton Broth II.” for “respectively.”
as §1

[9] = system: Escherichia coli (ATCC 25922); assay: MIC by broth microdilution
Method: as §1, with “DMSO,” for “DMSO (unless stated below),”, “incubation for 1 day at 36° C.,” for “incubation,”, “were reported as” for “below are”, “respectively. Microorganisms tested were Acinetobacter baumannii (ATCC 17978), Enterococcus faecalis (ATCC 29212), Enterococcus faecium VanA (ATCC 700221), Escherichia coli (ATCC 25922), Escherichia coli efflux defective DEL-tolC (JW5503), Heamophilus influenzae (ATCC 49247), Klebsiella pneumoniae (ATCC 43816), Pseudomonas aeruginosa (ATCC 27853), Pseudomonas aeruginosa MDR (NTUH-974), Staphylococcus aureus (ATCC 29213), Staphylococcus aureus MRSA (ATCC 33591) and Streptococcous pneumoniae (ATCC 46919). H. influenzae was grown in Haemophilus Test Medium and S. pneumoniae was grown in cation adjusted Muller-Hinton Broth II with 5% lysed horse blood. All other microorganisms were grown in cation adjusted Muller-Hinton Broth II.” for “respectively.”
as §1

[10] = system: Acinetobacter baumannii (ATCC 17978); assay: MIC by broth microdilution
Method: as §1, with “DMSO,” for “DMSO (unless stated below),”, “incubation for 1 day at 36° C.,” for “incubation,”, “were reported as” for “below are”, “respectively. Microorganisms tested were Acinetobacter baumannii (ATCC 17978), Enterococcus faecalis (ATCC 29212), Enterococcus faecium VanA (ATCC 700221), Escherichia coli (ATCC 25922), Escherichia coli efflux defective DEL-tolC (JW5503), Heamophilus influenzae (ATCC 49247), Klebsiella pneumoniae (ATCC 43816), Pseudomonas aeruginosa (ATCC 27853), Pseudomonas aeruginosa MDR (NTUH-974), Staphylococcus aureus (ATCC 29213), Staphylococcus aureus MRSA (ATCC 33591) and Streptococcous pneumoniae (ATCC 46919). H. influenzae was grown in Haemophilus Test Medium and S. pneumoniae was grown in cation adjusted Muller-Hinton Broth II with 5% lysed horse blood. All other microorganisms were grown in cation adjusted Muller-Hinton Broth II.” for “respectively.”
as §1

[11] = system: Escherichia coli, efflux defective DEL-tolC (JW5503); assay: MIC by broth microdilution
Method: as §1, with “DMSO,” for “DMSO (unless stated below),”, “incubation for 1 day at 36° C.,” for “incubation,”, “were reported as” for “below are”, “respectively. Microorganisms tested were Acinetobacter baumannii (ATCC 17978), Enterococcus faecalis (ATCC 29212), Enterococcus faecium VanA (ATCC 700221), Escherichia coli (ATCC 25922), Escherichia coli efflux defective DEL-tolC (JW5503), Heamophilus influenzae (ATCC 49247), Klebsiella pneumoniae (ATCC 43816), Pseudomonas aeruginosa (ATCC 27853), Pseudomonas aeruginosa MDR (NTUH-974), Staphylococcus aureus (ATCC 29213), Staphylococcus aureus MRSA (ATCC 33591) and Streptococcous pneumoniae (ATCC 46919). H. influenzae was grown in Haemophilus Test Medium and S. pneumoniae was grown in cation adjusted Muller-Hinton Broth II with 5% lysed horse blood. All other microorganisms were grown in cation adjusted Muller-Hinton Broth II.” for “respectively.”
as §1

[12] = system: Pseudomonas aeruginosa, MDR (NTUH-974); assay: MIC by broth microdilution; conditions: Table 2, Example 2
Method: as §1, with “DMSO,” for “DMSO (unless stated below),”, “incubation for 1 day at 36° C.,” for “incubation,”, “were reported as” for “below are”, “respectively. Microorganisms tested were Acinetobacter baumannii (ATCC 17978), Enterococcus faecalis (ATCC 29212), Enterococcus faecium VanA (ATCC 700221), Escherichia coli (ATCC 25922), Escherichia coli efflux defective DEL-tolC (JW5503), Heamophilus influenzae (ATCC 49247), Klebsiella pneumoniae (ATCC 43816), Pseudomonas aeruginosa (ATCC 27853), Pseudomonas aeruginosa MDR (NTUH-974), Staphylococcus aureus (ATCC 29213), Staphylococcus aureus MRSA (ATCC 33591) and Streptococcous pneumoniae (ATCC 46919). H. influenzae was grown in Haemophilus Test Medium and S. pneumoniae was grown in cation adjusted Muller-Hinton Broth II with 5% lysed horse blood. All other microorganisms were grown in cation adjusted Muller-Hinton Broth II.” for “respectively.”
as §1

With `C[N+](C)(C)Cc1ccc(/C=C/c2cc(/C=C/c3ccc(C[N+](C)(C)C)cc3)cc(/C=C/c3ccc(C[N+](C)(C)C)cc3)c2)cc1.[I-].[I-].[I-]` [Compound 1] the MIC [1] was greater than 128 µg/mL, the “activity against Gram-negative bacteria” value [2] was “active” and the MIC [3] was 128 µg/mL. The MIC [4] was 128 µg/mL, the MIC [5] was 32 µg/mL and the MIC [6] was 16 µg/mL. For the same molecule, the MIC ([7]; Table 1, Example 1) was 128 µg/mL, the MIC ([7]; Table 2, Example 2) was 128 µg/mL and the MIC ([8]; Table 1, Example 1) was greater than 256 µg/mL. For the same molecule, the MIC ([8]; Table 2, Example 2) was greater than 128 µg/mL, the MIC ([9]; Table 1, Example 1) was 64 µg/mL and the MIC ([9]; Table 2, Example 2) was 64 µg/mL. It also gave an MIC ([10]; Table 1, Example 1) of 128 µg/mL, an MIC ([10]; Table 2, Example 2) of 128 µg/mL and an MIC ([11]; Table 1, Example 1) of 32 µg/mL. The MIC ([11]; Table 2, Example 2) was 32 µg/mL and the MIC [12] was greater than 128 µg/mL.
